Laboratory results published in patent publication US11026944B2, “Compositions and methods for treating insomnia” (Eisai R&D Management Co., Ltd., priority 2014, dated 2021).

Tests used:
[1] = system: subjects with primary insomnia; experiment: 001 Study Part B: polysomnography (LPS, WASO, SE); format: in vivo, human; settings: zolpidem 10 mg single evening dose
Text: For Part B, 58 otherwise healthy subjects with primary insomnia were randomized across three cohorts, and stratified by gender. Part B also included an active control (zolpidem) and matching placebo. In each cohort, there were approximately 12 subjects in the compound A/zolpidem-matched placebo group, approximately four subjects in the zolpidem/compound A-matched placebo group, and approximately four subjects in the compound A-matched placebo/zolpidem-matched placebo group. Part B dosing occurred in the evening, 30 minutes prior to the sleep period. The starting dose for Part B was 3 dose levels that determined to be safe and well tolerated in Part A. Subsequent dose levels in Part B were determined based on the PD results of the first cohort in Part B and PD and safety results from at least 3 completed higher dose cohorts in Part A. Each cohort in Part B was divided into at least two groups, with dosing of each group staggered by a minimum of 2 days.
(§1) After the initial Screening visit, eligible subjects were scheduled to return to the clinic for 2 days during the Screening Period to conduct screening/baseline PSGs. These two days occurred at least 3 days after the initial Screening visit and within a window from Day-7 to Day-6 (±2 days). The first PSG was used to screen for sleep apnea and periodic limb movements in sleep (PLMS) and serve as the first baseline PSG. The second PSG was used as the second baseline PSG. Specific PSG variables were used to determine whether subjects met PSG inclusion criteria, and the average of PSG variables from these two PSGs was used as Baseline for this PD measure. Subjects who had met PSG inclusion criteria returned to the clinic on Day-1 for additional baseline procedures and randomization. Subjects were not allowed to nap on Day 1. On the evening of Day 1, after fasting a minimum of 3 hours, study drug was administered 30 minutes prior to the subject's habitual bedtime (lights-out), as calculated from the sleep diary for the first PSG during the Screening Period. PK blood samples were collected at prespecified timepoints, and PD assessments were performed. PSG was recorded on Day 1, postdose. Subjects were administered additional PD assessments each morning on Day 1 through Day 6. These assessments included the KSS, DSST, and PVT, in order to assess daytime sleepiness, level of alertness, and ability to concentrate. The KSS and DSST were also administered 5 minutes predose and 25 minutes postdose on Day 1, just prior to lights-out. Waketime Questionnaires were administered after the PD assessments within 15 minutes of lights-on, on Day 1 to Day 6. Time and duration of naps was recorded on Day 2.
In addition, PSG was performed during the Screening Period at Days-7 and -6 (±2 days), and postdose on Day 1. An 8-hour diagnostic PSG consisting of electroencephalogram (EEG), electrooculogram (EOG), electromyogram (EMG), ECGs, leg electrodes, and measures of respiratory function (airflow, respiratory effort, and oxygen saturation) were performed starting at the subject's habitual bedtime as determined from the sleep diary for the 3 nights immediately prior to the first PSG on Day-7 (±2 days). PSG variables from this night were used to screen for sleep apnea and PLMS. On Day-6 (±2) and postdose on Day1, standard PSGs (i.e., not including leg electrodes or measures of respiratory function other than oxygen saturation) were performed. Specified PSG variables from these two PSGs conducted during the Screening Period were used to determine whether subjects met PSG inclusion criteria. The average of PSG variables from these two PSGs conducted during the Screening Period were used as baseline PSG values. The key PD parameters such as PSG LPS, TST, SE, and WASO have been obtained from all PSG recordings.

[2] = system: subjects with primary insomnia; experiment: 001 Study Part B: next day KSS, DSST, PVT; format: in vivo, human; settings: any dose of compound A (2.5, 10, 25 mg); zolpidem 10 mg
Text: as §1
Part B subjects were administered the KSS, DSST, and PVT within 15 minutes after lights-on specifically in that order, on each morning from Day 1 through Day 6, followed by the Waketime Questionnaire. The KSS and DSST were also administered 5 minutes predose and 25 minutes postdose on Day 1 (just prior to lights-out).

## Cc1ccc(-c2nc3ccc(C)cn3c2CC(=O)N(C)C)cc1 [zolpidem, reference compound]
[1]
  change from Baseline in SE: 13%
[2]
  next day effects on KSS, DSST, or PVT: no clinically significant next day effects
